# Measured values as given in patent US20220218680A1, “TREATMENTS OF HEREDITARY ANGIOEDEMA” (KALVISTA PHARMACEUTICALS LIMITED, priority 2019, published 2022).
# B1: lanadelumab: recombinant fully human IgG1 kappa light chain monoclonal antibody, active substance of Takhzyro (antibody, chains of the INN, looked up, V domains shown)
# VH: EVQLLESGGGLVQPGGSLRLSCAASGFTFSHYIMMWVRQAPGKGLEWVSGIYSSGGITVYADSVKGRFTISRDNSKNTLYLQMNSLRAEDTAVYYCAYRRIGVPRRDEFDIWGQGTMVTVSS
# VL: DIQMTQSPSTLSASVGDRVTITCRASQSISSWLAWYQQKPGKAPKLLIYKASTLESGVPSRFSGSGSGTEFTLTISSLQPDDFATYYCQQYNTYWTFGQGTKVEIK
# What was measured:
# [1] = background, literature and labels; cited from earlier work
# [2] = Plasma free fraction by Rapid Equilibrium Dialysis; type: in vitro ADME; settings: 5 μM in neat human plasma, dialysed 5 hrs at 37° C.
# Experimental: Plasma free fraction was determined using “Rapid Equilibrium Dialysis” system (Thermo Scientific), test compounds were prepared at 5 μM in neat human plasma and dialysed against phosphate buffer for 5 hrs at 37° C. Quantification of the compound partitioned in two chambers of the dialysis device was performed via LCMS/MS. Fraction of compound unbound to plasma proteins presented as % of total.
# [3] = test system: HK cleavage by PKa in undiluted plasma; assay: DXS-activated cleavage of HK in undiluted plasma (immunoblot); type: biochemical; settings: 300 nM PKa inhibitor, 20 min incubation with DXS
# Experimental: DXS-activated cleavage of HK in undiluted plasma was performed in the absence or presence of 300 nM PKa inhibitor and quantified by SDS-PAGE gel electrophoresis, using 7.5% Criterion TGX Precast gels (Biorad). Transfer was made onto Immunobilon-FL PVDF membrane. Image analysis was done using the LICOR imaging system. Mouse monoclonal anti-HK antibody (MAB15692, R&D systems) was used for traditional immunoblotting. Data presented as % of HK remaining after 20 min incubation with DXS compared to HK levels in unactivated plasma (Table 1).
# [4] = Phase 1 single ascending dose study: plasma pharmacokinetics (LC MS/MS); type: in vivo, human; settings: oral capsule, fasted, 5 mg to 600 mg
# Experimental: (§1) This study was a randomized, double-blind, placebo-controlled single ascending dose (SAD) and crossover studies for food effect and capsule/tablet formulations.
# Samples for pharmacokinetic (PK) and PD assessment were taken at repeated intervals over 48 hours.
# Plasma samples used for PK assessment were analysed using a validated liquid chromatography tandem mass spectrometry (LC MS/MS) method.
# [5] = biological target: T1, Plasma Kallikrein (Homo sapiens, UniProt P03952); assay: Phase 1 SAD / food effect: ex vivo PKa catalytic activity in DXS-stimulated undiluted plasma
# T1 construct: PD measurements were determined in dextran sulfate (DXS) stimulated undiluted plasma using a fluorogenic enzyme assay; from tissue; host or cells: undiluted plasma of healthy male volunteers after oral dosing, stimulated ex vivo with dextran sulfate
# Experimental: (§2) PD measurements were determined in dextran sulfate (DXS) stimulated undiluted plasma using a fluorogenic enzyme assay and capillary based HK cleavage immunoassay.
# The time until appearance of detectable amidolytic enzyme activity in DXS-stimulated plasma (lag time) was calculated from the catalytic activity assay. The detection sensitivity of the rate of catalytic activity in plasma based on using a Spark (Tecan) fluorimeter is a fluorescence increase to reach 1ΔF unit/sec.
# [6] = test system: HK cleavage; assay: Phase 1 SAD: ex vivo DXS-stimulated HK cleavage, capillary-based immunoassay (Wes); type: in vivo, human
# Experimental: as §2
# DXS-stimulated cleavage of HK, in undiluted plasma was quantified by capillary-based immunoassay on the Wes System (ProteinSimple) using monoclonal anti-HK antibody and chemiluminescence-based detection. Plasma kallikrein mediated HK cleavage in undiluted citrated human plasma was induced by contact system activation with DXS (6.25 μg/ml) at 4° C. in selected samples from the SAD phase.
# [7] = test system: plasma prekallikrein (PPK) cleavage; assay: Phase 1 SAD: ex vivo DXS-stimulated cleavage of plasma prekallikrein, Wes immunoassay; type: in vivo, human; settings: 600 mg oral capsules, up to 12 hrs post-dose
# Description: (§3) DXS-stimulated cleavage of plasma prekallikrein and Factor XII (FXII) were quantified by capillary-based immunoassay on the Wes System (ProteinSimple) analogously.
# [8] = test system: Factor XII (FXII) cleavage / FXIIa generation; assay: Phase 1 SAD: ex vivo DXS-stimulated generation of FXIIa, Wes immunoassay; type: in vivo, human; settings: 600 mg oral capsules, up to 12 hrs post-dose
# Description: as §3
# [9] = Phase 1 single ascending dose study: safety and tolerability; type: in vivo, human; settings: phase I trial, healthy males, 5-600 mg oral
# Description: as §1
# [10] = test system: HK cleavage by PKa in undiluted citrated human plasma; assay: Protection of HK from PKa-mediated cleavage in DXS-stimulated HAE and control plasma (WES immunoassay); type: biochemical
# Experimental: High molecular weight kininogen (HK) cleavage in undiluted citrated human plasma was induced by contact system activation with dextran sulfate (DXS, Sigma #31395-10G; 6.25 μg/ml) on wet ice. […] HAE plasma was obtained from HAE subjects (n=6) and C1-inhibitor deficiency was confirmed by western blotting. Protection of HK from PKa mediated cleavage in DXS-stimulated whole undiluted plasma was then determined by two methods; traditional western blotting and a semi-automated capillary-based immunoassay.
# Preparation of samples: Combine one part 5× fluorescent master mix with four parts of the 1:200 plasma sample. Vortex to mix. Heat the samples+fluorescent master mix and the biotinylated ladder at 95° C. for 5 minutes, vortex, and load onto the WES plate. Monoclonal anti-human HK antibody was used for this chemiluminescence-based detection method using the Wes System (ProteinSimple).
# Analysis: Collect the peak area measurement obtained in the Compass software (cbz file) for the full-length HK molecular weight of the respective time-point sample with DXS-induced activation. The peak area is defined as the area calculated for the spectral peak profile for HK. To measure the plasma kallikrein inhibition by the compound, the percent full-length HK detected was calculated.
# [11] = Phase 2 study Part 1: pharmacokinetics in HAE patients; type: in vivo; settings: human, plasma, 600 mg single oral dose, n = 27, preliminary, read-out: Cmax Mean (95% CI)
# Experimental: In Part 1, subjects will receive a single oral dose of 600 mg of the compound to investigate the safety, PK and PD of the compound during the intercritical period between HAE attacks.
# Part 1: Blood samples for PK and PD measurements will be collected at the following timepoints: Pre-dose (0 h), 15 min, 30 min, 45 min, 1 h, 1.5 h, 2 h, 3 h, and 4 h post-dose. Vital signs (systolic blood pressure [SBP], diastolic blood pressure [DBP], pulse rate [PR], respiratory rate [RR] and body temperature) will be measured at pre-dose (0 h), 1 h, and 4 h post-dose. Samples for post-treatment safety laboratory assessments will be taken with the 4 h PK/PD samples.
# Non-compartmental PK parameters will include maximum concentration in plasma (Cmax), time to reach Cmax in plasma (tmax), and area under the curve from time 0 to last sample (AUC0-t). Compartmental PK modelling will describe the PK of the compound and generate underlying Cmax, tmax, AUC, apparent clearance (CL/F), apparent volume of distribution (Vd/F) and estimated terminal elimination half-life (t½).
# The PK parameters of the compound will be determined from the individual concentration versus time data using Phoenix WinNonlin. In case of a deviation from the theoretical time, the actual time of blood sample will be used in the calculation of the derived PK parameters. […]
# [12] = Phase 1 multiple dose study: safety, tolerability and ECG; type: in vivo, human; settings: 3 x 600 mg every 8, 4 or 2 hours, total 1800 mg, healthy adults
# Experimental: This is a phase 1, double-blind, placebo-controlled, multiple-dose, multiple-cohort study to evaluate safety and tolerability of the compound as well as of the ECG effects of the compound formulated as 100 mg Film Coated Tablets in healthy adult male and female subjects.
# During the study, oral doses of 600 mg of the compound as Film Coated Tablets (six 100 mg tablets) or 6 matching placebo tablets will be administered once every 8 hours (Cohort 1) every 4 hours (Cohort 2), or every 2 hours (Cohort 3 and 4) to healthy adult male and female subjects up to a total dose of 1800 mg. In Cohorts 1, 2 and 3, 6 subjects will receive the compound as 100 mg Film Coated Tablets and 2 subjects will receive the placebo for a total of 8 subjects per cohort. In Cohort 4, 12 subjects will receive the compound as 100 mg Film Coated Tablets and 6 subjects will receive the placebo for a total of 18 subjects.
# A Holter monitor will be attached to each subject in order to continuously record ECGs. The monitor will be attached 1 hour before the first dose and will remain attached until after the final blood sample collection. The electrodes for the Holter monitor will be checked by a member of the clinic staff at appropriate intervals to ensure they are attached.
# [13] = biological target: T2, Human plasma kallikrein (Protogen) (Homo sapiens, UniProt P03952); assay: Plasma kallikrein inhibitory activity in vitro (purified enzyme, fluorogenic substrate); type: biochemical; settings: 25° C., substrate H-DPro-Phe-Arg-AFC
# T2 construct: purchased Protogen
# Experimental: Human plasma kallikrein (Protogen) was incubated at 25° C. with the fluorogenic substrate H-DPro-Phe-Arg-AFC and various concentrations of the test compound. Residual enzyme activity (initial rate of reaction) was determined by measuring the change in […] at 410 nm and the IC50 value for the test compound was determined.
# [14] = biological target: PKa in DXS-activated plasma (Homo sapiens, UniProt P03952); assay: Catalytic activity of PKa in dextran sulfate-activated plasma (inhibitor added before DXS); type: biochemical; settings: read-out: IC50 plasma enzyme
# Experimental: Catalytic activity of PKa in dextran sulfate-activated (DXS, Sigma; 10 μg/ml) plasma (1:4 diluted or undiluted, VisuCon-F control plasma, Affinity Biologicals Inc) was determined by the time-dependent hydrolysis of fluorogenic substrate.
# [15] = biological target: purified PKa (Homo sapiens, UniProt P03952); assay: Rate of formation of the enzyme-inhibitor complex (Kon); type: biochemical
# Experimental: The rate of formation of the enzyme-inhibitor complex (Kon) was determined using purified PKa rapidly mixed with a solution containing fluorogenic substrate and a concentration range of inhibitor. The time-dependent establishment of inhibition was then used to calculate the rate of formation of the enzyme-inhibitor complex for each concentration of inhibitor. The Kon was calculated by plotting the rate of inhibition versus the inhibitor concentration. Data in Table 1 are presented in μM^−1 sec^−1.
# [16] = biological target: T3, plasma kallikrein in pre-activated undiluted human plasma (Homo sapiens, UniProt P03952); assay: Inhibition of enzyme activity of pre-activated undiluted plasma (compound added after DXS); type: biochemical; settings: added 3.5 minutes post DXS; compound 300, 1000, 3000 nM; C1-INH 3000 nM (FIG. 3B)
# T3 construct: from tissue
# Experimental: The ability of the compound to inhibit the enzyme activity of pre-activated plasma was assessed by addition of the compound after DXS stimulation. Aliquots of plasma (20 μL) were mixed with a 2.5 μL solution containing […] fluorogenic substrate (H-DPro-Phe-Arg-AFC) and a 2.5 μL solution of dextran sulphate (DXS; 100 μg/mL) which acted as an activator of the plasma kallikrein-kinin pathway. Enzyme activity was immediately measured by monitoring the accumulation of fluorescence liberated from the substrate by substrate cleavage over 16 minutes. At 3.5 minutes post DXS addition 5 μl of inhibitors or water control are were added into each well. The compound was tested at concentrations of 300, 1000 and 3000 nM. C1-INH at a concentration of 3000 nM and vehicle controls were also included.
# T1 sequence (P03952 391-638 limits assumed): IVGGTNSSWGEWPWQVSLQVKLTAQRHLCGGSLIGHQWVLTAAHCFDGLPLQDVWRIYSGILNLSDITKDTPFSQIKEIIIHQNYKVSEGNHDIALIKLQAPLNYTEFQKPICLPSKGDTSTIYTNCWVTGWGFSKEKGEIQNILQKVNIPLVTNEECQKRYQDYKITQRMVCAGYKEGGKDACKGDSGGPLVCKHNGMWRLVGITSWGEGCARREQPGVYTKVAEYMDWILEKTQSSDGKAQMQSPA
# T1 sequence (P03952 20-390 partner limits assumed): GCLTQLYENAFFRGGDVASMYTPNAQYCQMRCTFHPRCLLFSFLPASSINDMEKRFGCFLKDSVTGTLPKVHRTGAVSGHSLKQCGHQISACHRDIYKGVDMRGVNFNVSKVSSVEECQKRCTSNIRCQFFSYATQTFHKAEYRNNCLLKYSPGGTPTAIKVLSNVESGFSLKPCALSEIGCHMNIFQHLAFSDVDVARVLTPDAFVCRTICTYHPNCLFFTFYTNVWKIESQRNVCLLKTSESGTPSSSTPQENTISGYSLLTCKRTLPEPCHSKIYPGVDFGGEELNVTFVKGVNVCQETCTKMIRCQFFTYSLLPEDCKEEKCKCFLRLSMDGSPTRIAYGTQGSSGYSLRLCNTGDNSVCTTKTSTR
# Chain of PKa in DXS-activated plasma (P03952 391-638 limits assumed): as the sequence (P03952 391-638 limits assumed) above
# Chain of PKa in DXS-activated plasma (P03952 20-390 partner limits assumed): as the sequence (P03952 20-390 partner limits assumed) above
# T3 sequence (P03952 391-638 limits assumed): as the sequence (P03952 391-638 limits assumed) above
# T3 sequence (P03952 20-390 partner limits assumed): as the sequence (P03952 20-390 partner limits assumed) above
# T2 sequence (P03952 391-638 limits assumed): as the sequence (P03952 391-638 limits assumed) above
# T2 sequence (P03952 20-390 partner limits assumed): as the sequence (P03952 20-390 partner limits assumed) above
# Chain of purified PKa (P03952 391-638 limits assumed): as the sequence (P03952 391-638 limits assumed) above
# Chain of purified PKa (P03952 20-390 partner limits assumed): as the sequence (P03952 20-390 partner limits assumed) above
molecule,measurement,setting,value
"N#Cc1cccc([C@@H](NCC2CC2)c2ccc(F)c(NC(=O)c3cc(C(F)(F)F)nn3-c3cccc(CN)c3)c2)c1 [Berotralstat, reference compound]",reported adverse reactions / risks,[1],more gastrointestinal adverse effects
"COCc1nn(Cc2ccc(Cn3ccccc3=O)cc2)cc1C(=O)NCc1nccc(OC)c1F [compound of Formula A, N-[(3-fluoro-4-methoxypyridin-2-yl)methyl]-3-(methoxymethyl)-1-({4-[(2-oxopyridin-1-yl)methyl]phenyl}methyl)pyrazole-4-carboxamide]","fraction unbound at 5 h, 5 μM",[2],0.25
same,HK protection (% of HK remaining vs unactivated plasma),[3],85%
same,plasma exposure,[4],rapid and dose-dependent plasma exposure
same,lag time (time until appearance of catalytic activity during contact system activation),"[5]; 600 mg dose, tablet formulation",increases the time until appearance of catalytic activity
same,food effect on the pharmacodynamic (PD) profile,"[5]; 600 mg tablet, fed vs fasted",no significant food-effect
same,effect on HK cleavage in DXS-activated plasma,"[6]; 600 mg oral capsules, up to 12 hrs post-dose",reduces HK cleavage
same,duration of protection of HK from DXS-activated cleavage in undiluted plasma,[6]; single 600 mg dose,at least 10 hr
same,effect on PPK cleavage in DXS-activated plasma,[7],reduces PPK cleavage
same,effect on generation of FXIIa in DXS-activated plasma,[8],reduces the generation of FXIIa
same,serious adverse events,[9],No serious adverse events
same,tolerability,[9],no tolerability signals
same,protection against HK cleavage,[10]; HAE plasma stimulated with dextran sulfate,dose dependent protection against HK cleavage
same,protection against HK cleavage,[10]; healthy control plasma stimulated with dextran sulfate,dose dependent protection against HK cleavage
same,Cmax,[11],5910 ng/mL
same,effects on the studied ECG parameters,[12],No clinically relevant effects
same,serious adverse events,[12],No serious adverse events
same,severity of reported adverse events,[12],mild
"C1-INH: C1 inhibitor (Sigma Cat #E0518), used as a therapeutic benchmark for HAE [Compound C1-INH]",IC50,[13],50 nM
same,IC50,[14],1700 nM
same,Kon,[15],40000 M⁻¹ s⁻¹
same,inhibition of enzyme activity after activation of plasma,[16],slower action
Ecallantide,reported adverse reactions / risks,[1],risk of anaphylactic reactions
B1,reported adverse reactions / risks,[1],"hypersensitivity, injection site pain, injection site erythema, and injection site bruising"
